In the supplement of paper PMC10307832:

What was measured:
Assay in all cases: relative viability (nuclei count vs DMSO), 5 days (fraction); higher = more cells survive
[1] = compound: Nc1ccccc1NC(=O)c1ccc(CNC(=O)OCc2cccnc2)cc1 [Entinostat] + NC(=O)Nc1cc(-c2cccc(F)c2)sc1C(=O)N[C@H]1CCCNC1 [AZD7762] (partner 0.2 µM)
How it was run: (§1)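 Relative viability is defined as nuclei in treated wells over nuclei in vehicle wells. Duplicate plates were run and medians reported. Lung cancer cell lines in 1536-well plates were dosed by pin tool one day after seeding, with one drug or with a fixed anchor-drug dose plus five library-drug doses (not always all listed) in √10 steps, and nuclei were counted after 5 days.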

[2] = compound: C1COCCN1C2=NC(=NC3=C2OC4=C3C=CC=N4)C5=CC(=CC=C5)NC(=O)C6=CN=C(C=C6)N + Cc1nc(NC(=O)N2CCC[C@H]2C(N)=O)sc1-c1ccnc(C(C)(C)C(F)(F)F)c1 [Alpelisib] (partner 2 µM)
How it was run: as §1

[3] = compound: CN1CCC(CNc2ccc3ncc(-c4cccc(OC(F)(F)F)c4)n3n2)CC1 [SGI-1776] + Cc1cc(Nc2cc(N3CCN(C)CC3)nc(Sc3ccc(NC(=O)C4CC4)cc3)n2)n[nH]1 [Tozasertib] (partner 0.1 µM)
How it was run: as §1

[4] = compound: Nc1ccccc1NC(=O)c1ccc(CNC(=O)OCc2cccnc2)cc1 [Entinostat] + CC1(C)CCC(c2ccc(Cl)cc2)=C(CN2CCN(c3ccc(C(=O)NS(=O)(=O)c4ccc(N[C@H](CCN5CCOCC5)CSc5ccccc5)c(S(=O)(=O)C(F)(F)F)c4)cc3)CC2)C1 [Navitoclax] (partner 0.5 µM)
How it was run: as §1

Cell Line | relative viability ([1]; first compound 0.02 µM) | relative viability ([1]; first compound 0.06325 µM) | relative viability ([1]; first compound 0.2 µM) | relative viability ([1]; first compound 0.6325 µM) | relative viability ([1]; first compound 2 µM) | relative viability ([2]; first compound 0.02 µM) | relative viability ([2]; first compound 0.06325 µM) | relative viability ([2]; first compound 0.2 µM) | relative viability ([2]; first compound 0.6325 µM) | relative viability ([2]; first compound 2 µM) | relative viability ([3]; first compound 0.08 µM) | relative viability ([3]; first compound 0.8 µM) | relative viability ([3]; first compound 2.53 µM) | relative viability ([3]; first compound 8 µM) | relative viability ([4]; first compound 0.02 µM) | relative viability ([4]; first compound 0.06325 µM) | relative viability ([4]; first compound 0.2 µM) | relative viability ([4]; first compound 0.6325 µM) | relative viability ([4]; first compound 2 µM)
LCLC-103H | 0.818 | 0.866 | 0.719 | 0.474 | 0.432 | 0.87 | 0.993 | 0.962 | 0.967 | 0.878 | 0.495 | 0.506 | 0.424 | 0.211 | – | – | – | – | –
SW 1573 | – | – | – | – | – | 0.659 | 0.912 | 0.734 | 0.699 | 0.576 | 0.174 | 0.16 | 0.174 | 0.17 | 0.933 | 1.35 | 1.07 | 0.996 | 0.628
IA-LM | – | – | – | – | – | – | 0.853 | 0.582 | 0.609 | 0.43 | – | – | – | – | 0.802 | 0.861 | 0.898 | 0.685 | 0.378
NCI-H661 | – | – | – | – | – | 0.703 | 0.698 | 0.664 | 0.531 | 0.728 | 0.347 | 0.378 | 0.336 | 0.379 | – | – | – | – | –
NCI-H2342 | 0.514 | 0.569 | 0.507 | 0.428 | 0.398 | – | – | – | – | – | 0.668 | 0.456 | 0.504 | 0.357 | – | – | – | – | –
SW 900 | 0.723 | 0.699 | 0.726 | 0.488 | 0.268 | – | – | – | – | – | 0.693 | 0.608 | 0.467 | 0.222 | – | – | – | – | –
SK-LU-1 | – | – | – | – | – | 0.956 | 1.04 | 0.879 | 0.749 | 0.473 | 0.397 | 0.265 | 0.212 | 0.207 | 0.633 | 0.76 | 1.1 | 0.37 | 0.368
COR-L 105 | – | – | – | – | – | 0.912 | 1.02 | 0.801 | 0.705 | 0.583 | 0.334 | 0.286 | 0.352 | 0.318 | 0.771 | 0.911 | 0.738 | 0.407 | 0.333
NCI-H2009 | – | – | – | – | – | 1.26 | 1.24 | 1.16 | 1.11 | 0.838 | 0.646 | 0.543 | 0.449 | 0.387 | 1.21 | 1.19 | 1.13 | 0.816 | 0.52
NCI-H1563 | – | – | – | – | – | 0.886 | 0.871 | 0.855 | 0.843 | 0.729 | – | – | – | – | – | – | – | – | –
NCI-H1703 | 0.109 | 0.153 | 0.129 | 0.116 | 0.106 | 0.282 | 0.315 | 0.288 | 0.289 | 0.201 | – | – | – | – | 1.22 | 1.21 | 1.37 | 1.05 | 0.575
EBC-1 | – | – | – | – | – | 0.653 | 0.728 | 0.742 | 0.713 | 0.478 | – | – | – | – | 0.422 | 0.326 | 0.287 | 0.184 | 0.15
NCI-H1792 | 0.731 | 0.747 | 0.465 | 0.236 | 0.153 | 0.55 | 0.717 | 0.768 | 0.351 | 0.358 | – | – | – | – | 0.729 | 0.674 | 0.576 | 0.535 | 0.222
SK-MES-1 | – | – | – | – | – | 0.949 | 1.07 | 0.984 | 0.971 | 0.724 | 0.964 | 0.35 | 0.154 | 0.133 | 1.2 | 1.21 | 1.24 | 1.17 | 0.788
NCI-H1650 | – | – | – | – | – | – | – | – | – | – | 0.374 | 0.287 | 0.214 | 0.226 | 1.2 | 1.28 | 1.1 | 0.673 | 0.673
NCI-H1648 | 0.789 | 0.715 | 0.725 | 0.566 | 0.485 | – | – | – | – | – | 0.58 | 0.503 | 0.451 | 0.284 | – | – | – | – | –
A549 | – | – | – | – | – | 0.64 | 0.793 | 0.644 | 0.63 | 0.346 | – | – | – | – | 1.22 | 1.21 | 1.07 | 0.787 | 0.395
NCI-H1299 | – | – | – | – | – | 1.1 | 1.11 | 1.09 | 1.06 | 0.857 | – | – | – | – | 1.05 | 1.01 | 1.05 | 0.936 | 0.763
NCI-H1623 | – | – | – | – | – | – | – | – | – | – | 0.436 | 0.425 | 0.39 | 0.45 | – | – | – | – | –
NCI-H2228 | – | – | – | – | – | 0.737 | 0.707 | 0.66 | 0.493 | 0.317 | 0.253 | 0.145 | 0.117 | 0.148 | 1.03 | 0.758 | 0.52 | 0.365 | 0.349
NCI-H2023 | – | – | – | – | – | 0.68 | 0.621 | 0.544 | 0.438 | 0.359 | 0.325 | 0.224 | 0.165 | 0.148 | 0.916 | 0.692 | 0.496 | 0.163 | 0.138
NCI-H522 | 0.779 | 0.846 | 0.85 | 1.07 | 0.796 | – | – | – | – | – | 0.654 | 0.557 | 0.502 | 0.523 | – | – | – | – | –
Calu-6 | – | – | – | – | – | 1.09 | 0.979 | 0.882 | 0.936 | 0.721 | – | – | – | – | 0.761 | 0.859 | 0.774 | 0.524 | 0.308
COR-L23 | – | – | – | – | – | 0.958 | 0.876 | 0.844 | 0.868 | 0.589 | 0.204 | 0.156 | 0.115 | 0.11 | 0.86 | 0.8 | 0.865 | 0.441 | 0.123
NCI-H520 | – | – | – | – | – | 0.914 | 0.923 | 0.971 | 1.02 | 0.406 | 0.436 | 0.442 | 0.427 | 0.385 | 1.02 | 1.02 | 1.21 | 0.916 | 0.456
